In patent US20250352654A1, “PHARMACEUTICAL AGENT CONJUGATES TO MODULATE MACROPHAGE AND INFLAMMATORY FUNCTIONS AND USES THEREOF” (REGENTS OF THE UNIVERSITY OF MINNESOTA, priority 2022, published 2025):
Like-named read-outs stand apart in the source and are kept apart here. Bridge positions count the residues as written; N and C are the ends. Square brackets hold non-standard residues; d marks the D form. Ends that are not written are not given here. FAM = fluorescein amidite (fluorescein); Ahx = NCCCCCC(=O)O

Legend:
[1] = test system: inflamed lung; experiment: CRV peptide homing in LPS-induced ALI mice (IHC/IF); format: in vivo, mouse; details: healthy (PBS) mice; FAM-labeled peptide i.v., 1 h; IHC and IF
Protocol: (A) Representative immunohistochemistry (IHC) images of targeting RXRB by CRV peptide in the lung of acute lung injury (ALI) mice. Control (PBS) or ALI (LPS-treated) mice were intravenously injected with FAM-labeled CRV or a control peptide (GGS) for 1 h homing, respectively. The lungs were collected for IHC analysis on whole-cell RXRB expression (left) and peptide amount (detected by anti-FITC antibody, right). (B) Quantification of FITC expression for FAM-labeled peptides in the lungs by IHC staining. (C) Representative immunofluorescence (IF) images of colocalization of rabbit anti-RXRB antibody with CD11b in PBS controls (top) and acute lung injury (ALI) mice (bottom). The lungs were collected for IF staining for the indicated markers after 6 h in vivo homing by intravenous injection of 25 mg of rabbit polyclonal RXRB antibodies in […] of PBS in mice. The mice receiving intratracheal injection of PBS served as healthy controls. All the animal experiments were performed in three mice per group. (D) Relative percentage of RXRB-positive cells in different tissues of ALI mice. […] The fluorescence intensity for CRV or GGS binding per cells was plotted in the histograms. […] (H) Quantification of RXRB in IHC sections from lungs of human subjects with ILD. […] FAM, carboxyfluorescein; FITC, fluorescein iso-thiocyanate; A.U., arbitrary units; MFI, mean fluorescence intensity; Neg, negative. […]

[2] = test system: arthritic joints; experiment: CRV accumulation in joints of K/BxN serum-transfer arthritis mice (IHC); format: in vivo, mouse; details: FAM peptide i.v., 1 hour
Protocol: (B) The arthritic mice were injected intravenously with a control peptide (GGS, top) or CRV (bottom). The mice were sacrificed after 1 hour and joints were collected for IHC staining.
FIGS. 7B-7D illustrates In vivo CRV peptide distribution in arthritic mouse models. (B) Scheme of synthesis of 64Cu-DOTA-CRV. (C) Representative immunohistochemistry (IHC) images of peptide accumulation in the tissues of collagen-induced-arthritis (CIA) mice with anti-FITC antibody for FAM-labeled CRV and FAM-GGS, upon intravenous injection for 1 h, respectively. Scale bars: 100 μm. (D) Representative IHC images of CRV-peptide and a control peptide (GGS) accumulation in the ankle joints of K/B×N serum-transfer arthritic mice at 1 h post intravenous injection as detected by FAM signals with anti-FITC antibody. Scale bar: 200 μm for 10× magnification; 100 μm for 20× magnification. All the animal experiments were performed in 3 mice per group. DOTA, 1,4,7,10-tetraazacyclododocane tetraacetic acid; FAM, carboxyfluorescein; FITC, fluorescein isothiocyanate.
To study the accumulation of CRV in inflamed joints, 100 μl of fluorescein (FAM)-CRV peptide solution (1 mg/ml in PBS) and the control peptide, GGS (SEQ ID NO: 2), was injected intravenously into mice with K/B×N serum-transfer arthritis (for a description of this mouse model, see VetPathol 52(5):819-26, 2015). […]

[3] = format: in vivo, mouse; details: for Thymus weight: mean; for Lymphocytes (count of total blood lymphocytes) / T cells (CD45+CD3+) count: normalized to the vehicle group
Protocol: (C and D) Flow-cytometry analysis of blood cell populations in mice with different treatment. The count of (C) blood lymphocytes and (D) T cells in mice receiving different treatment were normalized to the vehicle group. […] The weight of thymus was measured, and the blood was collected for flow cytometry 4 h after the third dose of treatment. All experiments were performed in 3-4 mice per group, and the experiment was repeated three times. Data shown are mean±SD. Student's t test was performed for statistical analysis. *p<0.05, **p<0.01, ***p<0.001.
The gating was started with choosing the live cells by plotting SSC-A vs. FSC-A. Single cells were then selected by plotting FSC-A vs. FSC-H for the live cells followed by subpopulation of CD45+ cells. The lymphocytes were selected by plotting CD45+ cells and SSC-A, which were then selected for T cells by CD3 staining. The tissues and the blood were collected 4 hours after the third dose of treatment. All experiments were performed in 3-4 mice per group and the experiment was repeated three times. The data are presented as the mean±standard deviation (SD). Statistical significance was calculated using Student's t test.
To identify subpopulations of myeloid cells, single cell suspensions were collected from the lung with a lung dissociation kit for mouse (Miltenyi Biotec, Auburn, CA) and other tissues, including blood and spleen, were collected for flow cytometry analysis. […] Flow cytometry analysis was performed on a BD Fortessa™ X-20 (BD Biosciences, East Rutherford, NJ). The data were analyzed with Flow JO™ software (Tree Star, San Carlos, CA).

[4] = In vivo pharmacokinetics of PSL conjugates; details: male, C57BL/6, mouse, plasma, iv, healthy mice, 1 mg kg-1 equivalent dose of PSL
Protocol: FIG. 2U discloses mean plasma concentration-time curves of PSL following intravenous administration of free PSL, Cys-PSL and CRV-PSL with an equivalent PSL dosage at 1 mg kg^−1. All the animal experiments were performed in 3-4 mice per group. The data are presented as the mean±standard deviation (SD). Statistical significance was calculated using Student's t test. *P<0.05, **P<0.01, CRV-PSL vs free PSL group; #P<0.05, ##P<0.01, ###P<0.001 Cys-PSL vs free PSL group.
HPLC-MS/MS analysis was performed using the chromatographic system consisted of UltiMate™ 3000 RSLCnano System (Thermo Fisher Scientific) and a ZORBAX™ C18 column (5 μm, 150 mm 0.5 mm, Agilent, Santa Clara, CA). The mobile phase was a mixture of H2O/acetonitrile with a gradient elution (from 90:10 to 10:90 and return to 90:10, v/v) at a flow rate of 15 μl/min. The eluent was introduced directly into the electrospray source of a tandem quadrupole mass spectrometer (TSQ VANTAGE™, Thermo Fisher Scientific) that was operated in the positive mode. The spray voltage was set at 3000 V. The compounds were analyzed by multiple reaction monitoring (MRM) of the transitions of m/z (ESI+) 361.24→147.06 for PSL.
Healthy male C57BL/6 mice (8- to 9-weeks-old; body weight of 25-30 g) were deprived of food overnight with free access to water. […]
We first evaluated the plasma pharmacokinetics of CRV-PSL in healthy mice.

[5] = test system: 4T1 breast cancer tumor; experiment: Tumor accumulation of D-CRV and L-CRV after oral administration; format: in vivo, mouse; details: 4 hours, IF
Protocol: FAM-labeled L-CRV or D-CRV was orally administered to tumor-bearing mice.
To compare the in vivo distributions of the D-isoform of CRV (D-CRV) and the L-isoform of CRV (L-CRV), fluorescein (FAM) dye labeled D-CRV and L-CRV peptides were synthesized. 100 μL of peptide solution (5 mg/mL in PBS) was administered via oral gavage into mice bearing a 4T1 breast cancer tumor (for a description of how this mouse model is generated, see J Control Release 301:42-53, 2019) 4 hours before the tumors were collected. Peptide accumulation in the tumor was observed by immunofluorescence (IF) staining of FAM. We had previously shown that L-CRV homes to such tumors following intravenous injection. […] Additionally, (D)-CRV-DEX was first applied to RA mice model via subcutaneous administration with hydrogel. […] The pharmacokinetics (PK) and biodistribution at other time points will be further evaluated.

[6] = 0.1 or 1 mg kg-1 PSL equivalent

GGS: control peptide <FAM>-<Ahx>-GGSGGSKG (SEQ ID NO: 2) ({FAM-Ahx}-GGSGGSKG)
peptide accumulation in the healthy lung [1]: little accumulation
peptide accumulation in arthritic joints [2]: few FAM signals were detected

C[C@]12C=CC(=O)C=C1CC[C@@H]1[C@@H]2[C@@H](O)C[C@@]2(C)[C@H]1CC[C@]2(O)C(=O)CO [Free PSL, prednisolone]
Thymus weight ([3]; 0.1 mg kg-1 PSL equivalent i.v. every 2 days for 5 days): 36.3 mg
Lymphocytes (count of total blood lymphocytes) ([3]; 0.1 mg kg-1 PSL equivalent): 0.45 fold changes
T cells (CD45+CD3+) count ([3]; 0.1 mg kg-1 PSL equivalent): 0.47 fold changes
Thymus weight ([3]; 1 mg kg-1 PSL equivalent i.v. every 2 days for 5 days): 28.3 mg
Lymphocytes (count of total blood lymphocytes) ([3]; 1 mg kg-1 PSL equivalent): 0.27 fold changes
T cells (CD45+CD3+) count ([3]; 1 mg kg-1 PSL equivalent): 0.40 fold changes
apoptosis in the thymus and other organs (TUNEL) [3, 6]: increases the level of apoptosis mainly in the thymus
counts of total lymphocytes and T subsets (in words) [3, 6]: reduced the counts of total lymphocytes and T subsets
thymus weight (in words) ([3]; 0.1 or 1 mg kg-1 PSL equivalent i.v. every two days for five days): greatest reduction in thymus weight
AUC(0-t) ([4]; mean (n = 3)): 41300 ng·h/mL
half-life ([4]; mean ± SD (n = 3)): 3.78 ± 0.5 h

D-CRV: D-isoform of CRV (SEQ ID NO: 52), fluorescein (FAM) dye labeled ([dC][dR][dV][dL][dR][dS]G[dS][dC]; disulfide 1-9 (inferred); also: FAM label, position not given here)
peptide accumulation in the tumor ([5]; FAM-labeled peptide, oral gavage 100 uL of 5 mg/mL): significant accumulation of CRV in the tumors
colocalization with CD11b in the tumor ([5]; oral gavage): colocalization with the myeloid cell marker CD11b in the tumor
